Columns and labels:
[1] = system: DU-145; test: Cytotoxicity against human DU-145 cells assessed as reduction in cell viability measured after 72 hrs by SRB assay; format: functional, cell-based; conditions: DU-145, 72 h
[2] = system: LNCaP; test: Cytotoxicity against human LNCaP cells assessed as reduction in cell viability measured after 72 hrs by SRB assay; format: functional, cell-based
[3] = system: HT-29; test: Cytotoxicity against human HT-29 cells assessed as reduction in cell viability measured after 72 hrs by SRB assay; format: functional, cell-based; conditions: HT-29, 72 h
[4] = system: NCI-H460; test: Cytotoxicity against human NCI-H460 cells assessed as reduction in cell viability measured after 72 hrs by SRB assay; format: functional, cell-based; conditions: NCI-H460, 72 h
[5] = system: HCT-116; test: Cytotoxicity against human HCT-116 cells assessed as reduction in cell viability measured after 72 hrs by SRB assay; format: functional, cell-based; conditions: HCT-116, 72 h
[6] = system: MDA-MB-231; test: Cytotoxicity against human MDA-MB-231 cells assessed as reduction in cell viability measured after 72 hrs by SRB assay; format: functional, cell-based; conditions: MDA-MB-231, 72 h
[7] = system: MIA PaCa-2; test: Cytotoxicity against human MIA PaCa-2 cells assessed as reduction in cell viability measured after 72 hrs by SRB assay; format: functional, cell-based; conditions: MIA PaCa-2, 72 h
[8] = system: W256; test: Antitumour activity against Walker 256 adenocarcinoma cells implanted in Wistar rat assessed as increase in animal survival rate by measuring T/C ratio at 6.25 mg/kg, ip qd for 3 days administered on day 3,4,5 after tumor cell transplantation; format: functional; conditions: time 3 day
[9] = system: DU-145; test: Antitumour activity against human DU-145 cells xenografted in Crl:Nu-Foxnl nu mouse assessed as inhibition of tumour growth at total effective dose of 48 mg/kg, ip measured on day 35; format: functional; conditions: DU-145, ip, 840 h, time 35 day, read-out: TGI
[10] = system: NCI-H460; test: Antitumour activity against human NCI-H460 cells xenografted in Crl:Nu-Foxnl nu mouse assessed as inhibition of tumour growth at total effective dose of 30 mg/kg, ip measured on day 14; format: functional; conditions: 336 h, time 14 day, read-out: TGI
[11] = system: PC-3; test: Cytotoxicity against human PC-3 cells assessed as reduction in cell viability measured after 72 hrs by SRB assay; format: functional, cell-based; conditions: PC-3, 72 h
[12] = system: UMUC3; test: Cytotoxicity against human UMUC3 cells assessed as reduction in cell viability measured after 72 hrs by SRB assay; format: functional, cell-based; conditions: UMUC3, 72 h
[13] = system: MCF7; test: Cytotoxicity against human MCF7 cells assessed as reduction in cell viability measured after 72 hrs by SRB assay; format: functional, cell-based; conditions: MCF7, 72 h
[14] = system: PANC-1; test: Cytotoxicity against human PANC-1 cells assessed as reduction in cell viability measured after 72 hrs by SRB assay; format: functional, cell-based; conditions: PANC-1, 72 h
[15] = system: BXPC-3; test: Cytotoxicity against human BXPC-3 cells assessed as reduction in cell viability measured after 72 hrs by SRB assay; format: functional, cell-based; conditions: BXPC-3, 72 h
[16] = system: ASPC1; test: Cytotoxicity against human ASPC1 cells assessed as reduction in cell viability measured after 72 hrs by SRB assay; format: functional, cell-based; conditions: ASPC1, 72 h
[17] = system: Capan-2; test: Cytotoxicity against human Capan-2 cells assessed as reduction in cell viability measured after 72 hrs by SRB assay; format: functional, cell-based; conditions: Capan-2, 72 h
[18] = system: PANC-1; test: Antitumour activity against human PANC-1 cells xenografted in Crl:Nu-Foxnl nu mouse assessed as inhibition of tumour growth at total effective dose of 160 mg/kg, iv measured on day 26; format: functional; conditions: PANC-1, iv, 624 h, time 26 day, read-out: TGI
[19] = system: HCT-116; test: Antitumour activity against human HCT-116 cells xenografted in Crl:Nu-Foxnl nu mouse assessed as inhibition of tumour growth at total effective dose of 120 mg/kg, iv measured on day 15; format: functional; conditions: HCT-116, iv, 360 h, time 15 day, read-out: TGI
[20] = system: MDA-MB-231; test: Antitumour activity against human MDA-MB-231 cells xenografted in Crl:Nu-Foxnl nu mouse assessed as inhibition of tumour growth at total effective dose of 40 mg/kg, iv measured on day 39; format: functional; conditions: MDA-MB-231, iv, 936 h, time 39 day, read-out: TGI
[21] = system: Quadruplex DNA; test: Stabilization of 5'-FAM/3'-TAMRA labeled c-Myc promoter G4 quadruplex DNA FPu18 (unknown origin) assessed as change in melting temperature at 10 microM measured after 15 mins by FRET assay; format: nucleic-acid assay
[22] = system: Quadruplex DNA; test: Stabilization of 5'-FAM/3'-TAMRA labeled telomeric G4 quadruplex DNA F21T (unknown origin) assessed as change in melting temperature at 10 microM measured after 15 mins by FRET assay; format: nucleic-acid assay
[23] = system: Quadruplex DNA; test: Stabilization of 5'-FAM/3'-TAMRA labeled K-Ras G4 quadruplex DNA (unknown origin) assessed as change in melting temperature at 10 microM measured after 15 mins by FRET assay; format: nucleic-acid assay
[24] = Stabilization of ds 5'-FAM-d(TATAGCTATA-HEG-TATAGCTATA)-TAMRA-3' (unknown origin) assessed as change in melting temperature at 10 microM measured after 15 mins by FRET assay; conditions: Homo sapiens
[25] = system: W256; test: Antitumour activity against Walker 256 adenocarcinoma cells implanted in Wistar rat assessed as increase in animal survival rate by measuring T/C ratio at 5 mg/kg, ip qd for 3 days administered on day 3,4,5 after tumor cell transplantation; format: functional; conditions: time 3 day
[26] = system: NCI-H460; test: Antitumour activity against human NCI-H460 cells xenografted in Crl:Nu-Foxnl nu mouse assessed as inhibition of tumour growth at total effective dose of 60 mg/kg, ip measured on day 14; format: functional; conditions: 336 h, time 14 day, read-out: TGI
[27] = system: W256; test: Antitumour activity against Walker 256 adenocarcinoma cells implanted in Wistar rat assessed as increase in animal survival rate by measuring T/C ratio at 2 mg/kg, ip qd for 3 days administered on day 3,4,5 after tumor cell transplantation; format: functional; conditions: time 3 day
[28] = system: DU-145; test: Antitumour activity against human DU-145 cells xenografted in Crl:Nu-Foxnl nu mouse assessed as inhibition of tumour growth at total effective dose of 32 mg/kg, iv measured on day 63; format: functional; conditions: DU-145, iv, 1512 h, time 63 day, read-out: TGI
[29] = system: DU-145; test: Antitumour activity against human DU-145 cells xenografted in Crl:Nu-Foxnl nu mouse assessed as inhibition of tumour growth at total effective dose of 8 mg/kg, iv measured on day 33; format: functional; conditions: DU-145, iv, 792 h, time 33 day, read-out: TGI
[30] = system: NCI-H460; test: Antitumour activity against human NCI-H460 cells xenografted in Crl:Nu-Foxnl nu mouse assessed as inhibition of tumour growth at total effective dose of 10 mg/kg, iv measured on day 21; format: functional; conditions: 504 h, time 21 day, read-out: TGI
[31] = system: MDA-MB-231; test: Antitumour activity against human MDA-MB-231 cells xenografted in Crl:Nu-Foxnl nu mouse assessed as inhibition of tumour growth at total effective dose of 8 mg/kg, iv measured on day 50; format: functional; conditions: MDA-MB-231, iv, 1200 h, time 50 day, read-out: TGI
[32] = system: PANC-1; test: Antitumour activity against human PANC-1 cells xenografted in Crl:Nu-Foxnl nu mouse assessed as inhibition of tumour growth at total effective dose of 120 mg/kg, iv measured on day 51; format: functional; conditions: PANC-1, iv, 1224 h, time 51 day, read-out: TGI

Row | SMILES | IC50 [1] [nM] | IC50 [2] [nM] | IC50 [3] [nM] | IC50 [4] [nM] | IC50 [5] [nM] | IC50 [6] [nM] | IC50 [7] [nM] | IC50 [11] [nM] | IC50 [12] [nM] | IC50 [13] [nM] | IC50 [14] [nM] | IC50 [15] [nM] | IC50 [16] [nM] | ΔTm [21] [°C] | ΔTm [22] [°C] | ΔTm [23] [°C] | ΔTm [24] [°C] | also measured
1 | Cc1ccc([N+](=O)[O-])c2c(NCCCN3CCN(CCCNc4ccc(C)c5[nH]c6ccc(O)cc6c(=O)c45)CC3)c3ccccc3nc12 | 46 | 300 | 61 | 40 | 47 | 48 | 67 |  |  |  |  |  |  |  |  |  |  | T/C [8]: 300%; inhibition in vivo at 48 mg/kg [9]: 25%; inhibition in vivo at 30 mg/kg [10]: 6%
2 | Cc1ccc([N+](=O)[O-])c2c(NCCCN3CCN(CCCNc4ccc5ncn6c7ccc(O)cc7c(=O)c4c56)CC3)c3ccccc3nc12 | 67 |  | 237 | 74 | 51 | 17 | 38 | 130 | 35 | 244 | 42 | 354 | 343 | 21.3 | 16.4 | 18.8 | 4.4 | IC50 [17]: 68 nM; inhibition in vivo at 160 mg/kg [18]: 61%; inhibition in vivo at 120 mg/kg [19]: 4%; inhibition in vivo at 40 mg/kg [20]: 12%
3 | Cc1ccc([N+](=O)[O-])c2c(NCCCNCCCNc3ccc(C)c4[nH]c5ccccc5c(=O)c34)c3ccccc3nc12 | 129 | 213 | 1300 | 67 | 85 |  |  |  | 105 |  | 162 |  |  |  |  |  |  | T/C [25]: 1300%; inhibition in vivo at 60 mg/kg [26]: 25%
4 | Cc1ccc(NCCCN2CCN(CCCNc3c4ccccc4nc4cccc([N+](=O)[O-])c34)CC2)c2c(=O)c3cc(O)ccc3[nH]c12 | 20 | 84 | 23 | 5 | 19 | 28 | 16 | 48 | 9.5 | 113 | 27 | 59 | 79 | 17.9 | 7.3 | 27.6 | 1.7 | T/C [27]: 250%; inhibition in vivo at 32 mg/kg [28]: 90%; inhibition in vivo at 8 mg/kg [29]: 51%; inhibition in vivo at 10 mg/kg [30]: 42%; inhibition in vivo at 8 mg/kg [31]: 30%; inhibition in vivo at 120 mg/kg [32]: 75%
